Experimental data as given in US9902986B2, “Enterobactin conjugates and uses thereof” (Massachusetts Institute of Technology, priority 2013, dated 2018).

Test system: uropathogenic E. coli and non-pathogenic E. coli
Assay: Mixed culture assays (summary), uropathogenic and non-pathogenic E. coli
Assay type: cell-based, Escherichia coli
Settings: uropathogenic with non-pathogenic E. coli
Source text: No antibiotic marker was included in these cultures.

SMILES | strain-specific growth inhibition in the mixed culture assays
CC1(C)SC2C(NC(=O)C(NC(=O)CCCc3cn(CCOCCOCCOCCNC(=O)c4cc(O)c(O)c(C(=O)NC5COC(=O)C(NC(=O)c6cc(C7OC(CO)C(O)C(O)C7O)cc(O)c6O)COC(=O)C(NC(=O)c6cccc(O)c6O)COC5=O)c4)nn3)c3ccccc3)C(=O)N2C1C(=O)O (centres unmarked) [MGE-Amp] | specifically inhibited the growth of the uropathogenic E. coli
CC1(C)SC2C(NC(=O)C(NC(=O)CCCc3cn(CCOCCOCCOCCNC(=O)c4cc(O)c(O)c(C(=O)NC5COC(=O)C(NC(=O)c6cc(C7OC(CO)C(O)C(O)C7O)cc(O)c6O)COC(=O)C(NC(=O)c6cc(C7OC(CO)C(O)C(O)C7O)cc(O)c6O)COC5=O)c4)nn3)c3ccccc3)C(=O)N2C1C(=O)O (centres unmarked) [DGE-Amp] | specifically inhibited the growth of the uropathogenic E. coli
